Results from US20060069010A1, “Detoxification depot for Alzheimer's disease” (Senicure LLC, priority 2003, published 2006).
Square brackets hold non-standard residues; d marks the D form. Ends that are not written are not given here.

Assays:
[1] = biological target: T1, biotinylated Aβ^1-42 peptide (Homo sapiens, UniProt P05067); assay: direct ELISA, plate-immobilised capture peptide probed with biotinylated Aβ peptide; type: binding; details: 1 μg/well capture peptide, 1 μg/ml biotinylated Aβ, 2 hours; compared to scrambled or irrelevant control peptide (FIG. 1a)
T1 construct: biotinylated Aβ^1-42 peptide (1.7 μg/ml) at 37° C; purchased
Procedure: (§1) FIG. 1a graphically illustrates binding of biotinylated Aβ^1-42 and biotinylated Aβ^1-40 peptide by RI peptide. 96-well plate was coated with the capture peptide (1 μg/well of retro-inverso [RI], scrambled [SCR] or an irrelevant control peptide), blocked with gelatin and probed with 1 μg/ml of biotinylated Aβ peptide for 2 hours and streptavidin peroxidase for 1 hour. Experiments were repeated and were calculated as Mean±SE (N=2) and expressed as pmols Aβ^1-42/ml of binding solution. Graded concentrations of biotinylated Aβ^1-42 peptide was used as a calibration standard.
(§2) Testing the binding and stability of biotinylated Aβ peptides in binding solution. The ability of the biotinylated, nt-bAP, which is represented by Aβ peptides (1-42 and 1-40) to bind the binding element, the retro inverso peptide (RI) was investigated on a direct ELISA as described at the end of this section. RI, scrambled or an irrelevant peptide, immobilized on an ELISA plate was allowed to bind biotinylated Aβ peptides, 1-42 or 1-40.

[2] = biological target: T2, biotinylated Aβ^1-40 peptide (Homo sapiens, UniProt P05067); assay: as above; type: binding; details: 1 μg/well capture peptide, 1 μg/ml biotinylated Aβ, 2 hours; compared to scrambled or irrelevant control peptide (FIG. 1a)
T2 construct: biotinylated Aβ^1-40 peptide (1.7 μg/ml) at 37° C; purchased
Procedure: as §1, §2

nt-bAP = details: according to the thioflavin assay (Zhang et al.); cited from earlier work
Aβ = details: after 1 day of treatment; on the order of 500 ng/g tissue; cited from earlier work
Aβ, sequence (P05067 672-711 limits assumed): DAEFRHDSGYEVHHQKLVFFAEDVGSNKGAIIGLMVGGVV

T2 sequence (P05067 672-711): as the sequence (P05067 672-711 limits assumed) above
nt-bAP, sequence (P05067 672-711 limits assumed): as above
T1 sequence (P05067 672-713): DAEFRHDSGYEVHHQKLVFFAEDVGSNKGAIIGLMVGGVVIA

Question: Which results are given for “phe-phe-val-leu-lys-Cys ([dF][dF][dV][dL][dK][dC]-NH2; not fully specified; printed as phe-phe-val-leu-lys-Cys) [RI peptide]”?
Answer: binding of biotinylated Aβ^1-42 by capture peptide [1]: significant and specific binding; binding of biotinylated Aβ^1-40 by capture peptide [2]: significant and specific binding

Question: With phe-phe-val-leu-lys [ffvlk] as the substance, how does the “toxicity of aggregates of binding element with nt-bAP” value (nt-bAP) read?
Answer: The value was “less toxic than nt-bAP itself”.

Question: For gelsolin, which “levels of Aβ in brain” value (Aβ) is on record?
Answer: The value was “reduced in half”.

Question: With GM1 as the substance, how does the “levels of Aβ in brain” value (Aβ) read?
Answer: Its value is “reduced in half”.
